Results reported in US9260534B2, “Site-directed PEG-modified exendin-4 analogs and uses thereof” (priority 2010, dated 2016).

Test system: GLP-1 receptor
Assay: Evaluation of agonistic activity on GLP-1 receptor (CRE-luciferase reporter in HEK293 cells)
Type: cell-based
Conditions: HEK293 cells stably expressing CRE-luciferase reporter system; cellular level
Source text: GLP-1 receptor is a Gs-coupled GPCR. CRE-luciferase reporter system was stably expressed in human embryonic kidney epithelial cell line HEK293 used for evaluation. Therefore, once the receptor was activated, the enhancement of intracellular concentration of the second messenger cAMP through Gs signal pathway would initiate the expression of the luciferase gene in the reporter system. The ability of the test compounds to stimulate and activate GLP-1 receptor was reflected by the detected expression level of the luciferase reporter gene.

[Cys^21(mPEG5000-MAL)]Exendin-4 [Compound 1]
EC50: 22.5 nM
